Measurements published in article PMC5601486, “Identification of 4-phenylquinolin-2(1H)-one as a specific allosteric inhibitor of Akt” (Scientific Reports, 2017).

Key:
[1] = test system: T1, PDK1; experiment: ADP-Glo kinase assay; format: biochemical; conditions: 50 µM
T1 construct: purchased Promega V2761
Experimental: (§1) Elisa Assay for phosphorylation of Akt
(§2) Neuro 2A cells in 48-well plates were incubated with the inhibitor for 30 minutes at 37°C followed by IGF stimulation for 30 min. Cells were lysed and subjected to Elisa assay using an Akt (S473) InstantOne Elisa kit (ThermoFisher Scientific, # 8586042-11) in accordance with manufacturer ’s instruction.
(§3) An ADP-GloTM kinase assay kit (Promega, # V9101) was used to measure the activity of PDK1 or SGK1 in accordance with the manufacturer’s instructions. For PDK1 assay, the reaction mixture included 5 µM ATP, 50 µM inhibitor, 100 ng recombinant PDK1 and 2 µg PDKtide substrate (Promega, #V2761) prior to the addition of the ADP-Glo reagents. For SGK1, 5 µM ATP, 50 µM inhibitor, 10 ng SGK1 and 1 µg Akt substrate peptide (Promega, #V2911) were used. Staurosporine at concentration between 0.4 and 4,000 nM or the SGK1 inhibitor GSK-650394 (Tocris Bioscience) between 7 and 2,000 nM were used as controls for PDK1 or SGK1 assay respectively. For PI3K assay, 50 µM ATP, 50 µM inhibitor, 100 ng recombinant PI3 kinase (SignalChem, Richmond, Canada, # P27-10H-05) and 1.5 mg/mL multilamellar phospholipid vesicles containing PC/PE/PS/PIP2 (at mass ratio of 1/0.5/0.2/0.1) were used. Inhibitor blanks as well as LY-294002 between 78 and […]

[2] = test system: T2, SGK1; experiment: ADP-Glo kinase assay; format: biochemical; conditions: 50 µM
T2 construct: purchased Promega V2911
Experimental: as §1, §2, §3

[3] = test system: T3, Akt; experiment: In vitro phosphorylation of Akt S473 by MAPKAP kinase 2; format: biochemical; conditions: inactive Akt, PE/PC/PS/PIP3 vesicles
T3 construct: purchased Millipore 14-279

[4] = test system: T4, PFPK5(P.falciparum); experiment: KINOMEscan; format: binding; conditions: 50000 nM
T4 construct: purchased DiscoveRx KINOMEscan

[5] = test system: CDKL1; experiment: KINOMEscan; conditions: 50000 nM
Experimental: KINOMEscan™ selectivity screen
(§4) Briefly, Kinase-tagged T7 phage strains were grown in parallel in an E. coli host derived from the BL21 strain. E. coli were grown to log-phase and infected with T7 phage from a frozen stock and incubated with shaking at 32°C until lysis (90-150 minutes). The kinases were produced in HEK-293 cells and subsequently tagged with DNA for qPCR detection. Streptavidin-coated magnetic beads were treated with biotinylated small molecule ligands to generate affinity resins for kinase
(§5) inhibitor or DMSO control was performed in polypropylene 384-well plates for 1 hr at room temperature. After wash with PBS buffer containing 0.05% Tween 20, the beads were incubated in elution buffer (PBS containing 0.05 % Tween 20 and 0.5 μM non-biotinylated affinity ligand) for 30 minutes at room temperature. The kinase concentration in the eluates was measured by qPCR.

[6] = test system: MAP4K5; experiment: KINOMEscan; conditions: 50000 nM
Experimental: KINOMEscan™ selectivity screen
(§6) The assay was perfor med at DiscoveRx Corporation according the methods published previously5. Briefly, Kinase-tagged T7 phage strains were grown in parallel in an E. coli host derived from the BL21 strain. E. coli were grown to log-phase and infected with T7 phage from a frozen stock and incubated with shaking at 32°C until lysis (90-150 minutes). The kinases were produced in HEK-293 cells and subsequently tagged with DNA for qPCR detection. Streptavidin-coated magnetic beads were treated with biotinylated small molecule ligands to generate affinity resins for kinase
as §5

[7] = test system: MAPKAPK2; experiment: KINOMEscan; conditions: 50000 nM
Experimental: KINOMEscan™ selectivity screen
as §6, §5

[8] = test system: MKK7; experiment: KINOMEscan; conditions: 50000 nM
Experimental: KINOMEscan™ selectivity screen
as §6, §5

[9] = test system: PLK1; experiment: KINOMEscan; conditions: 50000 nM
Experimental: KINOMEscan™ selectivity screen
as §6, §5

[10] = test system: PRKCE; experiment: KINOMEscan; conditions: 50000 nM
Experimental: KINOMEscan™ selectivity screen
as §6, §5

[11] = test system: TNK2; experiment: KINOMEscan; conditions: 50000 nM
Experimental: KINOMEscan™ selectivity screen
as §6, §5

[12] = test system: PIK3C2G; experiment: KINOMEscan; conditions: 50000 nM
Experimental: KINOMEscan™ selectivity screen
as §6, §5

[13] = test system: PFTK1; experiment: KINOMEscan; conditions: 50000 nM
Experimental: KINOMEscan™ selectivity screen
as §4, §5

[14] = test system: MEK4; experiment: KINOMEscan; conditions: 50000 nM
Experimental: KINOMEscan™ selectivity screen
as §6, §5

[15] = test system: TYRO3; experiment: KINOMEscan; conditions: 50000 nM
Experimental: KINOMEscan™ selectivity screen
as §6, §5

[16] = test system: AMPK-alpha1; experiment: KINOMEscan; conditions: 50000 nM
Experimental: KINOMEscan™ selectivity screen
as §6, §5

[17] = test system: MAP4K3; experiment: KINOMEscan; conditions: 50000 nM
Experimental: KINOMEscan™ selectivity screen
as §6, §5

[18] = test system: NDR2; experiment: KINOMEscan; conditions: 50000 nM
Experimental: as §4, §5

[19] = test system: EGFR(S752-I759del); experiment: KINOMEscan; conditions: 50000 nM
Experimental: KINOMEscan™ selectivity screen
as §6, §5

[20] = test system: FER; experiment: KINOMEscan; conditions: 50000 nM
Experimental: as §4, §5

[21] = test system: EGFR(L858R); experiment: KINOMEscan; conditions: 50000 nM
Experimental: KINOMEscan™ selectivity screen
as §6, §5

[22] = test system: IKK-beta; experiment: KINOMEscan; conditions: 50000 nM
Experimental: KINOMEscan™ selectivity screen
as §6, §5

[23] = test system: RET(V804L); experiment: KINOMEscan; conditions: 50000 nM
Experimental: KINOMEscan™ selectivity screen
as §6, §5

[24] = test system: FGFR2; experiment: KINOMEscan; conditions: 50000 nM
Experimental: KINOMEscan™ selectivity screen
as §6, §5

[25] = test system: PRKR; experiment: KINOMEscan; conditions: 50000 nM
Experimental: KINOMEscan™ selectivity screen
as §6, §5

[26] = test system: CSNK2A2; experiment: KINOMEscan; conditions: 50000 nM
Experimental: KINOMEscan™ selectivity screen
as §4, §5

[27] = test system: MEK5; experiment: KINOMEscan; conditions: 50000 nM
Experimental: KINOMEscan™ selectivity screen
as §6, §5

[28] = test system: PIP5K1A; experiment: KINOMEscan; conditions: 50000 nM
[29] = test system: PAK2; experiment: KINOMEscan; conditions: 50000 nM
Experimental: KINOMEscan™ selectivity screen
as §6, §5

[30] = test system: PIM2; experiment: KINOMEscan; conditions: 50000 nM
Experimental: KINOMEscan™ selectivity screen
as §6, §5

[31] = test system: ABL1(H396P)-phosphorylated; experiment: KINOMEscan; conditions: 50000 nM
Experimental: KINOMEscan™ selectivity screen
as §6, §5

[32] = test system: SIK; experiment: KINOMEscan; conditions: 50000 nM
Experimental: KINOMEscan™ selectivity screen
as §6, §5

[33] = test system: TRKA; experiment: KINOMEscan; conditions: 50000 nM
Experimental: KINOMEscan™ selectivity screen
as §6, §5

[34] = test system: LRRK2(G2019S); experiment: KINOMEscan; conditions: 50000 nM
Experimental: KINOMEscan™ selectivity screen
as §6, §5

[35] = test system: MAP3K2; experiment: KINOMEscan; conditions: 50000 nM
Experimental: KINOMEscan™ selectivity screen
as §6, §5

[36] = test system: TRKC; experiment: KINOMEscan; conditions: 50000 nM
Experimental: KINOMEscan™ selectivity screen
as §4, §5

[37] = test system: KIT(D816V); experiment: KINOMEscan; conditions: 50000 nM
Experimental: KINOMEscan™ selectivity screen
as §6, §5

[38] = test system: ABL1(Y253F)-phosphorylated; experiment: KINOMEscan; conditions: 50000 nM
Experimental: KINOMEscan™ selectivity screen
as §6, §5

[39] = test system: TRKB; experiment: KINOMEscan; conditions: 50000 nM
Experimental: KINOMEscan™ selectivity screen
(§7) The assay was perfor med at DiscoveRx Corporation according the methods published previously5. […] The kinases were produced in HEK-293 cells and subsequently tagged with DNA for qPCR detection. Streptavidin-coated magnetic beads were treated with biotinylated small molecule ligands to generate affinity resins for kinase
as §5

[40] = test system: MST4; experiment: KINOMEscan; conditions: 50000 nM
Experimental: KINOMEscan™ selectivity screen
as §7, §5

[41] = test system: KIT(V559D,T670I); experiment: KINOMEscan; conditions: 50000 nM
Experimental: KINOMEscan™ selectivity screen
as §6, §5

[42] = test system: CSF1R; experiment: KINOMEscan; conditions: 50000 nM
Experimental: KINOMEscan™ selectivity screen
as §6, §5

In the case of `Oc1cc(-c2ccccc2)c2ccccc2n1` [G7, 4-phenylquinolin-2(1H)-one], the “effect on PDK1 activity” value [1] is reported as “no effects”, the “effect on SGK1 activity” value [2] is reported as “no effects” and the “in vitro phosphorylation of S473 by MAPKAP kinase 2” value [3] is reported as “impaired”. The “Percent Control” value [4] was 85%, the “Percent Control” value [5] was 100% and the “Percent Control” value [6] was 100%. The “Percent Control” value [7] was 100%, the “Percent Control” value [8] was 100% and the “Percent Control” value [9] was 100%. The “Percent Control” value [10] was 100%, the “Percent Control” value [11] was 99% and the “Percent Control” value [12] was 97%. The “Percent Control” value [13] was 94%, the “Percent Control” value [14] was 93% and the “Percent Control” value [15] was 93%. The “Percent Control” value [16] was 90%, the “Percent Control” value [17] was 89% and the “Percent Control” value [18] was 88%. The “Percent Control” value [19] was 85%, the “Percent Control” value [20] was 84% and the “Percent Control” value [21] was 83%. For the same compound, the “Percent Control” value [22] was 83%, the “Percent Control” value [23] was 83% and the “Percent Control” value [24] was 80%. For the same compound, the “Percent Control” value [25] was 74%, the “Percent Control” value [26] was 70% and the “Percent Control” value [27] was 70%. The “Percent Control” value [28] was 70%, the “Percent Control” value [29] was 68% and the “Percent Control” value [30] was 68%. The “Percent Control” value [31] was 66%, the “Percent Control” value [32] was 65% and the “Percent Control” value [33] was 65%. For the same compound, the “Percent Control” value [34] was 63%, the “Percent Control” value [35] was 63% and the “Percent Control” value [36] was 61%. The “Percent Control” value [37] was 58%, the “Percent Control” value [38] was 56% and the “Percent Control” value [39] was 56%. For the same compound, the “Percent Control” value [40] was 53%, the “Percent Control” value [41] was 44% and the “Percent Control” value [42] was 7.4%.
